In patent US12240921B2, “Peptides” (priority 2022, dated 2025):
Starred links: 1 amine or outer side, 2 acyl side, 3 side chain; linkers in the order of their positions; H or OH if unused. Groups on a side chain read outwards from the residue. No end group written: not given here. *: point of attachment. C18 diacid = O=C(O)CCCCCCCCCCCCCCCCC(=O)*; γGlu = O=C(O)[C@H](CCC(=O)[*:2])N[*:1]; AEEA = NCCOCCOCC(=O)O

Assays:
BDNF = test: In vivo efficacy in wild-type mice, single SC dose: BDNF levels (western blotting); design: species or system mouse; details: single SC dose: LLP11 21 mg/kg, LLP12 26 mg/kg, CLP11 21 mg/kg; 4 and 8 hours
Description: 4 and 8 hour timepoints were chosen.
4-hour timepoint were chosen.

Wistar Kyoto rats = test: Wistar Kyoto (WKY) rat model of depression: EEG/EMG sleep-wake recording; format: in vivo; details: single injection, 0-3 h post dosing
Description: Ketamine (10 mg/kg), a N-methyl-D-aspartate-receptor antagonist, was used as positive control. All rats received all treatments 2 h after light onset in a pseudo randomized crossover fashion with a minimum period of 3 days between treatments. The rats were placed individually in recording boxes, and sleep-wake behaviour was recorded for 24 h. EEG/EMG signals were amplified, analogue filtered (0.5-100 Hz), digitized (500 Hz), and then digitally filtered (EEG: 0.5-100 Hz and EMG: 70-100 Hz). EEG/EMG recordings were semi-automatically scored as wake, non-REM (NREM) sleep, or REM sleep in 10 s epochs using SleepSign. Sleep stages were defined as below: […]

Molecule | BDNF levels in vivo (BDNF) | REM & NREM sleep (Wistar Kyoto rats) | time spent awake (wakefulness) (Wistar Kyoto rats)
LLP12: Linear lipidated peptide K*EQEMTEPVEHEEDV-NH2, * = C18DA-γGlu-OEG-OEG- (K([AEEA-AEEA-γGlu-C18 diacid])EQEMTEPVEHEEDV-NH2; N-terminus assumed; SMILES CSCC[C@H](NC(=O)[C@H](CCC(=O)O)NC(=O)[C@H](CCC(N)=O)NC(=O)[C@H](CCC(=O)O)NC(=O)[C@@H](N)CCCCNC(=O)COCCOCCNC(=O)COCCOCCNC(=O)CC[C@H](NC(=O)CCCCCCCCCCCCCCCCC(=O)O)C(=O)O)C(=O)N[C@H](C(=O)N[C@@H](CCC(=O)O)C(=O)N1CCC[C@H]1C(=O)N[C@H](C(=O)N[C@@H](CCC(=O)O)C(=O)N[C@@H](Cc1c[nH]cn1)C(=O)N[C@@H](CCC(=O)O)C(=O)N[C@@H](CCC(=O)O)C(=O)N[C@@H](CC(=O)O)C(=O)N[C@H](C(N)=O)C(C)C)C(C)C)[C@@H](C)O) | increase BDNF in vivo |  | 
CNC1(c2ccccc2Cl)CCCCC1=O (stereo not drawn) [ketamine] |  | at the expense of REM & NREM sleep | increased time spent awake
